One compound from PMC10333465, “Multi-Function of a New Bioactive Secondary Metabolite Derived from Endophytic Fungus Colletotrichum acutatum of Angelica sinensis” (Journal of Microbiology and Biotechnology, 2022) can be followed below.

What is called IC50 is the point on the concentration scale where inhibition reaches its midpoint.

Holding throughout (assay type): biochemical
One assay deals with α-glucosidase. Put plainly: colorimetric pNPG enzyme assay.
Assay [1] has as its target T1, DNA topoisomerase I (Human Top I) (Homo sapiens, UniProt P11387).
T1 construct: gene TOP1
T1 sequence (P11387 2-765): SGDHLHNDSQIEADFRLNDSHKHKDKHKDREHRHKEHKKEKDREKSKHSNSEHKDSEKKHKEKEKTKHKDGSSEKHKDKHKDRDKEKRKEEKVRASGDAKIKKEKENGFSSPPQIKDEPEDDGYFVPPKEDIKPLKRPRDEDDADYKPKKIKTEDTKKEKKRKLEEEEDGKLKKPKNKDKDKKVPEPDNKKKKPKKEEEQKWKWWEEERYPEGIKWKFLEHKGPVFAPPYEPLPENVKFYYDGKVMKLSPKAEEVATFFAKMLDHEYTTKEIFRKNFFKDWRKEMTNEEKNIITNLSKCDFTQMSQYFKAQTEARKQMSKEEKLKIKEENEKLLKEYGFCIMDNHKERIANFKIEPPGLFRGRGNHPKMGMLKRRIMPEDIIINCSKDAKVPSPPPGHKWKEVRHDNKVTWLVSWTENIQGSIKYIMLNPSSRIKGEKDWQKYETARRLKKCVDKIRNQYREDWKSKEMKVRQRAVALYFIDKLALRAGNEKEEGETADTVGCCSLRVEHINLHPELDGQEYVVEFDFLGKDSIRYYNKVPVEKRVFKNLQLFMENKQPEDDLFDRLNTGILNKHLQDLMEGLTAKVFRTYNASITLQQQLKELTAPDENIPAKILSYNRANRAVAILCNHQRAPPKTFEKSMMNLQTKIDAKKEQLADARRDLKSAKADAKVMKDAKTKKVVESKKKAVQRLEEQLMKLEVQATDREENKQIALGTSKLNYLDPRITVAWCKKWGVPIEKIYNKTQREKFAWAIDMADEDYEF
Nature of the assay: pBR322 supercoiled DNA relaxation assay, agarose gel ([…]).

The next assay deals with α-amylase. Nature of the assay: colorimetric starch/DNS enzyme assay.

Converted amounts (≈) assume the structure as drawn.

As for `CCCC(O)c1coc(=O)c(C)c1OC` (stereo not drawn) [C-HMMP, 5-(1-hydroxybutyl)-4-methoxy-3-methyl-2H-pyran-2-one], the figures for the IC50 against α-glucosidase and against α-amylase were 144.7 µg/mL (≈ 682 µM) and 118.6 µg/mL (≈ 559 µM), respectively. In assay [1], the “pBR322 supercoiled DNA relaxation assay, agarose gel (50, 150, 250 μg/ml)” value is ~ 250 μg/ml.
